Literature values, collected in US9180090B2, “Non-sedating antihistamine injection formulations and methods of use thereof” (JDP THERAPEUTICS, INC., priority 2009, dated 2015).

Legend:
[1] = for Major (potential drug interactions) / Minor (potential drug interactions) / Moderate (potential drug interactions): number of interactions per drugs.com
[2] = oral

| Structure (SMILES) | Major (potential drug interactions) [1] | Minor (potential drug interactions) [1] | Moderate (potential drug interactions) [1] | Disease state interaction ([1]; per drugs.com) | AUC0-24 (single dose) ([2]; single dose) | AUC(single dose)0-inf ([2]; single dose) | AUCss ([2]; steady state) |
| --- | --- | --- | --- | --- | --- | --- | --- |
| O=C(O)COCCN1CCN(C(c2ccccc2)c2ccc(Cl)cc2)CC1 (racemic) [Cetirizine, (±)-[2-[4-[(4-chlorophenyl)phenylmethyl]-1-piperazinyl]ethoxy]acetic acid] | 0 | 5 | 568 | Renal/Liver Disease | – | – | – |
| OCCOCCN1CCN(C(c2ccccc2)c2ccc(Cl)cc2)CC1 (racemic) [Hydroxyzine] | 17 | 6 | 622 | – | – | – | – |
| Clc1ccc2c(c1)CCc1cccnc1C2=C1CCNCC1 [desloratadine] | – | – | – | – | AUC0-24 (single dose) = about 34.2 ng · hr/mL | AUC(single dose)0-inf = about 35.6 ng/hr/mL | AUCss = about 56.9 ng · hr/mL |
